Consider one molecule from US20110281807A1, “PLANT DISEASE CONTROL AGENT COMPRISING D-TAGATOSE AS ACTIVE INGREDIENT, AND PLANT DISEASE CONTROL METHOD” (NATIONAL UNIVERSITY CORPORATION KAGAWA UNIVERSITY, priority 2008, published 2011).

The test system of experiment [1] is Pseudoperonospora cubensis. The note with it: 5 ml soil drench, inoculated 5 days after drenching.
Procedure: Test plants (cucumber, variety: Sagami hanpaku) were seeded and grown until the one true leaf stage. D-Tagatose was diluted to 5% and 1% with distilled water and then 5 ml of the dilution was drenched into the soil of the pot. Five days after drenching, a sporangium suspension of Pseudoperonospora cubensis containing 1×10^3/ml were noculated by spraying on the test plants and then put them for 16 hours in an inoculation chamber (20° C. to 23° C.) to promote disease. Seven days after inoculation the disease severity of the test plants was observed and the effectiveness of test sample was judged. Tests were carried out using two plants for each test set and the disease severity of the test plants was judged. The preventive value was calculated from the degree of disease severity as in Example 1.
Experiment [2] relates to Peronospora parasitica. Put plainly: cabbage downy mildew, pot test: preventive effect. Particulars: inoculated 3 days after spraying.
Procedure: Test plants (cabbage, variety: Shikidori) were seeded and grown until 4 leaves stage. […] Three days after spraying, a suspension containing condia of cucumber downy mildew (Peronospora parasitica) was inoculated by spraying on test plants. Seven days after inoculation the disease severity of the test plants was observed and the effectiveness of test sample was judged. Tests were carried out using two plants for each test set and the disease severity of test plants was judged in accordance with the following criteria. The preventive value was calculated from the degree of disease severity as in Example 1.
For experiment [3], the system named is Pseudoperonospora cubensis. Put plainly: cucumber downy mildew, pot test: preventive effect. The note with it: for Preventive value (3 DAS): inoculated 3 days after spraying; for Preventive value (5 DAS): inoculated 5 days after spraying.
Procedure: Test plants (cucumber, variety: Sagami hanpaku) were seeded and grown until the one true leaf stage. D-Tagatose was diluted to 5%, 1% and 0.5% with distilled water and then 10 ml of the dilution was sprayed on the test plant. Three or five days after spraying, a sporangium suspension of Pseudoperonospora cubensis containing 1×10^3/ml were inoculated by spraying on test plants and then the plants were put for 16 hours in an incubation chamber (20° C. to 23° C.) to promote disease. Seven days after inoculation the disease severity of the test plants was observed and the effectiveness of test sample was judged. Tests were carried out using two plants for each test set and the disease severity of the test plants was judged in accordance with the following criteria. The preventive value was calculated from the degree of the disease severity.
0 (No lesion) 1 (Lesion area was not more than 40%) 2 ((Lesion area was 40%-80%) 3 (Lesion area was not less than 80%)
Preventive value=100{1−(n/N)} N=disease severity of untreated leaf, n=disease severity of the tested leaf
The test system of experiment [4] is Pythium aphanidermatum. Particulars: 10 ml soil drench, from germination rate after 2 weeks.
Procedure: Five seeds of test plants (cucumber, variety: Sagami hanpaku) were sowed in a pot (5×5 cm), which contains infested soil with Pythium aphanidermatum (mycelium 100 g/1 L soil) and the seeds were covered with the soil. […] After 2 weeks, the disease severity of the test plants was observed and the effectiveness of test sample was judged. Tests were carried out in triplicate using 5 plants for each test set and the preventive value was calculated from the germination rate.
The subject of experiment [5] is Sphaerotheca fuligine. Put plainly: cucumber powdery mildew, pot test: preventive effect. Particulars: inoculated 3 days after spraying.
Procedure: Test plants (cucumber, variety: Sagami-hanpaku) were seeded and grown until the one true leaf stage. D-tagatose was diluted to 5% and 1% with distilled water and then 10 ml of the dilution was sprayed on the test plant. Three days after spraying, a condia suspension of Sphaerotheca fuligine was inoculated by spraying on test plants. Seven days after inoculation the disease severity of the test plants was observed and the effectiveness of test sample was judged. Tests were carried out using two plants for each test set and the disease severity of the test plants was judged in accordance with the following criteria.
The test system of experiment [6] is Phytophthora infestans. Format: in vivo. Particulars: inoculated 3 days after spraying.
Experiment [7] relates to Pseudoperonospora cubensis. Briefly: cucumber downy mildew, pot test: curative effect.
Procedure: Test plants (cucumber, variety: Sagami hanpaku) were seeded and grown until the one true leaf stage. And then a sporangium suspension of Pseudoperonospora cubensis containing 1×10^3/ml were sprayed on the back side of the leaves of test plants for inoculation and then the plants were put for 16 hours in an inoculation chamber (20° C. to 23° C.) to promote disease. For a curative test, the inoculated plants as described above were used.
D-Tagatose was diluted to 5%, 1% and 0.5% with distilled water and then 10 ml of the dilution was sprayed on the test plant. Seven days after the spraying of D-tagatose the disease severity of the test plants was observed and the effectiveness of test sample was judged. Tests were carried out using two plants for each test set and the disease severity of the test plants was judged. The control value was calculated from the degree of disease severity as in Example 1.
Experiment [8] has as its system Pythium glaminicola. Particulars: 10 ml soil drench, from percentage of onset area after 2 weeks.
Procedure: Four germinated rice seeds (variety: Koshihikari) were sowed in a pot (5×5 cm), which contains infected soil with Pythium glaminicola (mycelium 100 g/1 L soil). The pot was drenched with 10 ml of D-tagatose dilution and the seeds were covered with soil. After 2 weeks, the disease severity of the test plants per rice seedling in 25 cm^2 was observed and the effectiveness of test sample was judged. Tests were carried out in duplicate and the preventive value was calculated from percentage of onset area.

Read-outs that look alike come from different tables or passages of the source.

Take `O=C[C@H](O)[C@@H](O)[C@H](O)[C@H](O)CO` [D-Glucose]: the Preventive value in experiment [1] (10000 ppm), in experiment [1] (50000 ppm), in experiment [2] (10000 ppm spray), in experiment [2] (50000 ppm spray), in experiment [4] (10000 ppm) and in experiment [4] (50000 ppm) was 0.0 throughout. In addition, the Preventive value in experiment [5] (10000 ppm spray) was found to be 0.0; in experiment [5] (50000 ppm spray), 0.0; in experiment [6] (50000 ppm spray), 0.0; in experiment [6] (100000 ppm spray), 0.0; in experiment [8] (10000 ppm), 3.0; in experiment [8] (50000 ppm), 4.5. Further, the “Preventive value (3 DAS)” value in experiment [3] (5000 ppm spray), in experiment [3] (10000 ppm spray) and in experiment [3] (50000 ppm spray) was 0.0 each time. For the same molecule, the “Preventive value (5 DAS)” value in experiment [3] (5000 ppm spray), in experiment [3] (10000 ppm spray) and in experiment [3] (50000 ppm spray) was 0.0 each time. Besides, the “Preventive value (control value)” value in experiment [7] (5000 ppm sprayed after inoculation (curative)), in experiment [7] (10000 ppm sprayed after inoculation (curative)) and in experiment [7] (50000 ppm sprayed after inoculation (curative)) was 0.0 throughout.
